Results from paper PMC9596378, “Discovery and molecular basis of subtype-selective cyclophilin inhibitors” (Nature Chemical Biology, 2022).
Values joined by “and” are separate entries in the source; they are usually repeats but may differ in a detail not shown here. Equal entries are not always repeated. Where two headings read alike, the source gives them in different places. Blank lines part the entries; values can stand above or below the compound they belong to.

Legend:
[1] = molecular target: T1, NKTR (Homo sapiens, UniProt P30414); test: Chymotrypsin coupled prolyl-isomerase assay; assay type: biochemical
T1 construct: NKTR (UniProtKB Entry P30414: residues 7–179); host or cells: E. coli BL21(DE3)
T1 sequence (P30414 7-179): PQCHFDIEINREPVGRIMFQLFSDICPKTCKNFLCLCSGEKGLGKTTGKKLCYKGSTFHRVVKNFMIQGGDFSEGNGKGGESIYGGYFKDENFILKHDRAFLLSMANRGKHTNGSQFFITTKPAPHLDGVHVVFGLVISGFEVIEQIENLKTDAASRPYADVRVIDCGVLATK
Protocol: (§2) Adapting a previously described protocol[51], with an Agilent Bravo Velocity 11 with a 384ST head, 90 µL assay buffer (25 mM HEPES pH 7.3, 100 mM NaCl, 0.01% Triton X-100) containing 5.28 nM cyclophilin was added into a flat, clear-bottom, black 384-well plate pre-chilled in a Corning CoolBox at 2–3 °C. Five microliters of compound pre-dissolved in 5% DMSO/assay buffer was then added to appropriate wells and incubated at 2–3 °C for 5 min. Five microliters of 0.5 mM α-chymotrypsin from bovine pancreas (Type II, lyophilized powder, Millipore-Sigma) in 20% 1 mM HCl/Assay Buffer was then added to each well and incubated at 2–3 °C for 5 min. […] Using the internal liquid handling system of the FLIPR, 1 µL 0.5 mM Suc-AAPF-AMC (Chymotrypsin Substrate II, Millipore-Sigma) dissolved in 0.55 M LiCl/2,2,2-trifluoroethanol was added to each well, which was then mixed for 5 s, followed by immediate fluorescence measurements every 1 s for 330 s using a 360–380 nm excitation LED module and a 400–460 nm emission filter. Final concentrations of the plate include 5 nM cyclophilin, 0.25% DMSO, 25 µM α-chymotrypsin, 5 µM Suc-AAPF-AMC. Raw fluorescence data was analyzed by non-linear regression analysis with Prism v.9 by fitting one-phase association curves to each well. Analyses were halted after the calculated maximum fluorescent value owing to observed fluorescent bleaching during the sustained fluorescent plateau. Rate constants calculated for each well (s^−1) were then normalized to substrate only (no prolyl-isomerase) and enzyme + substrate only controls. IC50 values were calculated as the value at which 50% inhibition was achieved on the non-linear regression fitted curve of each compound.

[2] = molecular target: T2, CypB (Homo sapiens, UniProt P23284); test: biochemical
T2 construct: PPIB (UniProtKB Entry P23284: residues 34–216); His6 with TEV site (2BT vector leader) (N); made in house; host or cells: E. coli BL21(DE3)
T2 sequence (P23284 34-216): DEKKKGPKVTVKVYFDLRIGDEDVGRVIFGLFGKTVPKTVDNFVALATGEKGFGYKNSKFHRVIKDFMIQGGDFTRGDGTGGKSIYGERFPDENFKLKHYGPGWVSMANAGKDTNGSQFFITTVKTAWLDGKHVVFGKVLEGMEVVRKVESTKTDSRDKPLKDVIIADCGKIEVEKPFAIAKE
Procedure, shortened: (§1)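 Recombinant cyclophilin (5 nM final) in 25 mM HEPES pH 7.3, 100 mM NaCl, 0.01% Triton X-100 was preincubated with compound at 2–3 °C. It was then coupled with 25 µM α-chymotrypsin and 5 µM Suc-AAPF-AMC (LiCl/TFE), and AMC fluorescence was followed for 330 s.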

[3] = molecular target: T3, PPIL1 (Homo sapiens, UniProt Q9Y3C6); test: Chymotrypsin coupled prolyl-isomerase assay; assay type: biochemical
T3 construct: PPIL1 (UniProtKB Entry Q9Y3C6: residues 1–166); made in house; host or cells: E. coli BL21(DE3)
T3 sequence (Q9Y3C6 1-166): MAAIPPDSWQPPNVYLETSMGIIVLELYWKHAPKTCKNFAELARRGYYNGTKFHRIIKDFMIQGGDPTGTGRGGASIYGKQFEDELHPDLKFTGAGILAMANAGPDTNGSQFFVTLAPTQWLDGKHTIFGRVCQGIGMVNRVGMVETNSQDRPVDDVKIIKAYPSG
Protocol: as §2

[4] = molecular target: CypD (Homo sapiens, UniProt P30405); test: Chymotrypsin coupled prolyl-isomerase assay
CypD, sequence (P30405 45-207): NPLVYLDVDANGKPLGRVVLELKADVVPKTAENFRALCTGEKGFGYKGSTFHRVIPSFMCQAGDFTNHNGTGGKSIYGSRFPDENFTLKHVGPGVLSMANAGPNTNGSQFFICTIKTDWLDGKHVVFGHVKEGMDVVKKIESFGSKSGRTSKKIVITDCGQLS

[5] = molecular target: T4, PPWD1 (Homo sapiens, UniProt Q96BP3); test: Chymotrypsin coupled prolyl-isomerase assay; assay type: biochemical
T4 construct: PPWD1 (UniProtKB Entry Q96BP3: residues 473–646); host or cells: E. coli BL21(DE3)
T4 sequence (Q96BP3 473-646): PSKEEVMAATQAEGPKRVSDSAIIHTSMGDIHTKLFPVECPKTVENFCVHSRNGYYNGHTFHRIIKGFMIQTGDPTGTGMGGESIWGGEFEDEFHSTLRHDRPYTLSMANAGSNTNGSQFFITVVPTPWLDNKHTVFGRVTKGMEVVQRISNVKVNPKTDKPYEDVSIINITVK
Protocol: Five microliters of compound pre-dissolved in 5% DMSO/assay buffer was then added to appropriate wells and incubated at 2–3 °C for 5 min. Five microliters of 0.5 mM α-chymotrypsin from bovine pancreas (Type II, lyophilized powder, Millipore-Sigma) in 20% 1 mM HCl/Assay Buffer was then added to each well and incubated at 2–3 °C for 5 min. The plate was then quickly transferred to a FLIPR Tetra High-Throughput Cellular Screening System (Molecular Devices). Using the internal liquid handling system of the FLIPR, 1 µL 0.5 mM Suc-AAPF-AMC (Chymotrypsin Substrate II, Millipore-Sigma) dissolved in 0.55 M LiCl/2,2,2-trifluoroethanol was added to each well, which was then mixed for 5 s, followed by immediate fluorescence measurements every 1 s for 330 s using a 360–380 nm excitation LED module and a 400–460 nm emission filter. […] Raw fluorescence data was analyzed by non-linear regression analysis with Prism v.9 by fitting one-phase association curves to each well. Analyses were halted after the calculated maximum fluorescent value owing to observed fluorescent bleaching during the sustained fluorescent plateau. Rate constants calculated for each well (s^−1) were then normalized to substrate only (no prolyl-isomerase) and enzyme + substrate only controls.

[6] = molecular target: Cyp40 (Homo sapiens, UniProt Q08752); test: Chymotrypsin coupled prolyl-isomerase assay
Cyp40, sequence (Q08752 1-183): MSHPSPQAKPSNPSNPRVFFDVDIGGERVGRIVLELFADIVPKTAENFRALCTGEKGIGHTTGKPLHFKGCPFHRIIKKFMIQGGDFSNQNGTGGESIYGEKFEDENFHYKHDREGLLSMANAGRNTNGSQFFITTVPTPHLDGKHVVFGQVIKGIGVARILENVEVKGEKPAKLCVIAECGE
Procedure, shortened: as §1

[7] = wild-type NKTR, read-out: Wild-Type Cyclophilin Prolyl Isomerase Inhibition IC50 Values, NKTR
[8] = wild-type CypB, read-out: Wild-Type Cyclophilin Prolyl Isomerase Inhibition IC50 Values, CypB
[9] = wild-type PPIL1, read-out: Wild-Type Cyclophilin Prolyl Isomerase Inhibition IC50 Values, PPIL1
[10] = wild-type PPWD1, read-out: Wild-Type Cyclophilin Prolyl Isomerase Inhibition IC50 Values, PPWD1

Compound: NCCOCCNC(=O)[C@@H]1CCNC(=O)/C=C/C(=O)N2CCC[C@](Cc3ccccc3)(C2)C(=O)N[C@@H](Cc2ccc(-c3ccc(CC(C(=O)O)C(=O)O)cc3)cc2)C(=O)NCc2ccccc2CC(=O)N1 [Compound B52]
IC50 ([1]; Independent replicate 1, read-out: IC50 NKTR): > 100 µM
IC50 ([1]; Independent replicate 2, read-out: IC50 NKTR): > 100 µM
IC50 ([1]; Independent replicate 3, read-out: IC50 NKTR): > 100 µM
IC50 ([1]; Independent replicate 4, read-out: IC50 NKTR): > 100 µM
IC50 ([1]; prolyl-isomerase inhibition, 5 nM cyclophilin, read-out: IC50 NKTR): > 100 µM
IC50 ([1]; prolyl-isomerase inhibition, read-out: IC50 NKTR): > 100 µM
IC50 [1, 7]: > 100 µM
IC50 ([2]; CypB (comparator for CypB E121S), read-out: Mutant Cyclophilin Prolyl Isomerase Inhibition IC50 Values, CypB): 0.2 µM
IC50 ([2]; Independent replicate 1, read-out: IC50 CypB): 0.2 ± 0.05 µM
IC50 ([2]; Independent replicate 2, read-out: IC50 CypB): 0.19 ± 0.03 µM
IC50 ([2]; Independent replicate 3, read-out: IC50 CypB): 0.21 ± 0.04 µM
IC50 ([2]; Independent replicate 4, read-out: IC50 CypB): 0.2 ± 0.1 µM
IC50 ([2]; prolyl-isomerase inhibition, 5 nM cyclophilin, read-out: IC50 CypB): 0.21 µM
IC50 ([2]; prolyl-isomerase inhibition, read-out: IC50 CypB): 0.21 µM
IC50 [2, 8]: 0.21 µM
IC50 ([3]; Independent replicate 1, read-out: IC50 PPIL1): 5 ± 2 µM
IC50 ([3]; Independent replicate 2, read-out: IC50 PPIL1): 9 ± 3 µM
IC50 ([3]; Independent replicate 3, read-out: IC50 PPIL1): 6 ± 2 µM
IC50 ([3]; Independent replicate 4, read-out: IC50 PPIL1): 5 ± 2 µM
IC50 ([3]; prolyl-isomerase inhibition, 5 nM cyclophilin, read-out: IC50 PPIL1): 6 ± 2 µM
IC50 ([3]; prolyl-isomerase inhibition, read-out: IC50 PPIL1): 6 µM
IC50 [3, 9]: 6 µM
IC50 [4]: 0.01 ± 0.004 µM
IC50 ([4]; IC50 CypD, Independent replicate 1, mean±SEM of 3 technical replicates): 0.01 ± 0.002 µM
IC50 ([4]; IC50 CypD, Independent replicate 2): 0.011 ± 0.004 µM
IC50 ([4]; IC50 CypD, Independent replicate 3): 0.011 ± 0.005 µM
IC50 ([4]; IC50 CypD, Independent replicate 4): 0.01 ± 0.005 µM
IC50 ([4]; IC50 CypD, prolyl-isomerase inhibition): 0.01 µM
IC50 ([4]; Wild-Type Cyclophilin Prolyl Isomerase Inhibition IC50 Values, CypD, wild-type CypD): 0.01 µM
selectivity for CypD against the remaining six cyclophilins ([4]; prolyl-isomerase IC50): > 900 fold
selectivity for CypD over CypA ([4]; prolyl-isomerase IC50): > 100 fold and 100 fold
selectivity for CypD over CypA and PPIL1 ([4]; prolyl-isomerase IC50): 60- to 900 fold
selectivity for CypD over CypE and CypB ([4]; prolyl-isomerase IC50): 15- to 30 fold
IC50 ([4]; read-out: IC50 CypD, prolyl-isomerase inhibition, 5 nM cyclophilin, Suc-AAPF-AMC, mean±s.e.m. of 3 technical replicates (B52, B53, C3A wild-type: mean±s.d. of 4 independent replicates)): 0.01 µM
IC50 ([5]; Independent replicate 1, read-out: IC50 PPWD1): > 100 µM
IC50 ([5]; Independent replicate 2, read-out: IC50 PPWD1): > 100 µM
IC50 ([5]; Independent replicate 3, read-out: IC50 PPWD1): > 100 µM
IC50 ([5]; Independent replicate 4, read-out: IC50 PPWD1): > 100 µM
IC50 ([5]; prolyl-isomerase inhibition, 5 nM cyclophilin, read-out: IC50 PPWD1): > 100 µM
IC50 ([5]; prolyl-isomerase inhibition, read-out: IC50 PPWD1): > 100 µM
IC50 [5, 10]: > 100 µM
IC50 ([6]; IC50 Cyp40, Independent replicate 1): 13 ± 5 µM
IC50 ([6]; IC50 Cyp40, Independent replicate 2): 30 ± 20 µM
IC50 ([6]; IC50 Cyp40, Independent replicate 3): 20 ± 10 µM
IC50 ([6]; IC50 Cyp40, Independent replicate 4): 20 ± 10 µM
IC50 ([6]; Wild-Type Cyclophilin Prolyl Isomerase Inhibition IC50 Values, Cyp40, wild-type Cyp40): 22 µM

IC50 [1, 7]: > 10 µM
IC50 [2, 8]: > 10 µM
IC50 [3, 9]: > 10 µM
CypD prolyl-isomerase inhibition (in words) [4]: do not inhibit CypD in vitro
IC50 ([4]; read-out: Wild-Type Cyclophilin Prolyl Isomerase Inhibition IC50 Values, CypD, wild-type CypD): > 10 µM
IC50 [5, 10]: > 10 µM
IC50 ([6]; read-out: Wild-Type Cyclophilin Prolyl Isomerase Inhibition IC50 Values, Cyp40, wild-type Cyp40): > 10 µM
Compound: C[N+]1=C(C=CC=CC=C2N(CCCCCC(=O)NCCNC(=O)C3CCNC(=O)C=CC(=O)N4CCCC(Cc5ccccc5)(C4)C(=O)NC(Cc4ccc(-c5ccc(C(CC(=O)O)CC(=O)O)cc5)cc4)C(=O)NCc4ccccc4CC(=O)N3)c3ccccc3C2(C)C)C(C)(C)c2ccccc21 (centres unmarked) [*B53-Cy5]
